The record followed here is patent publication US20240270751A1, “Pyrazolopyridinone Compounds” (BeiGene Ltd., priority 2021, published 2024).

One assay concerns the target DGKα (Homo sapiens (Human), UniProt P23743). In words: Biochemical DGK IC50 assay, DGKα ADP-Glo assay. As to conditions: 7.5 nM enzyme, 140 μM ATP, 80 μM DAG. In a few lines:
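ADP-Glo read-out with full-length DGKα on DAG/PS lipid micelle substrate in 25 mM HEPES pH 7.0, 0.5 mM EDTA, 160 mM octyl β-D-glucopyranoside. Compound final concentrations spanned 1.55˜10000 nM or 23.3˜150000 nM.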
For orientation: In ADP-Glo the light output rises with the ADP produced.

A further assay concerns the target DGKζ (Homo sapiens (Human), UniProt Q13574). In words: Biochemical DGK IC50 assay, DGKζ ADP-Glo assay. Conditions: 0.5 nM enzyme, 140 μM ATP, 80 μM DAG; read-out: DGKζ ADP-Glo assay IC50. In a few lines: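 Full-length human DGKζ, His-TEV tagged and purified from baculovirus-infected Sf9 cells, assayed by ADP-Glo with DAG/PS lipid micelle substrate prepared in 25 mM HEPES pH 7.0 with octyl glucoside. Final compound concentrations spanned 1.55–10000 nM or 23.3–150000 nM.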

DGKα, sequence (P23743 whole entry): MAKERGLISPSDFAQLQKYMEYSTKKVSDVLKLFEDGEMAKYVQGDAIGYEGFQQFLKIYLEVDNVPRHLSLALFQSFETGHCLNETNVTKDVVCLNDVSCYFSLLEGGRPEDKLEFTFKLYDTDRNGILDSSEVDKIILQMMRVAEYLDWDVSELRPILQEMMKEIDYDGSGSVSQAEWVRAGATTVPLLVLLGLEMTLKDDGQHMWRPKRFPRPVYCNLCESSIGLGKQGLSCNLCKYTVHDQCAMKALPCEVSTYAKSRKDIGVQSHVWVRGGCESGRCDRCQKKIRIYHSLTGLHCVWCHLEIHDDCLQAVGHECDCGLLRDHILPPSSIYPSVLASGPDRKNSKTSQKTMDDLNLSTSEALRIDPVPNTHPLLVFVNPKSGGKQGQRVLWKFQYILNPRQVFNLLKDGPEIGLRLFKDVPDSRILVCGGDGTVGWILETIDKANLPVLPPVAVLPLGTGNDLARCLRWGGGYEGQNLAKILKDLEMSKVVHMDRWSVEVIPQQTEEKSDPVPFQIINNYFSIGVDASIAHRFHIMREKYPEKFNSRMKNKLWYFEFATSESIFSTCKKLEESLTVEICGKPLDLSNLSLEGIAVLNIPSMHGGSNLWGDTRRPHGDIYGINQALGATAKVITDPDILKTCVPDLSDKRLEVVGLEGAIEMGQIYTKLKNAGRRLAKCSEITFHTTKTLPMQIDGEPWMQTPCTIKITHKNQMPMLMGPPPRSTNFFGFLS
DGKζ, sequence (Q13574 other isoform, or with tags, fused parts or gaps): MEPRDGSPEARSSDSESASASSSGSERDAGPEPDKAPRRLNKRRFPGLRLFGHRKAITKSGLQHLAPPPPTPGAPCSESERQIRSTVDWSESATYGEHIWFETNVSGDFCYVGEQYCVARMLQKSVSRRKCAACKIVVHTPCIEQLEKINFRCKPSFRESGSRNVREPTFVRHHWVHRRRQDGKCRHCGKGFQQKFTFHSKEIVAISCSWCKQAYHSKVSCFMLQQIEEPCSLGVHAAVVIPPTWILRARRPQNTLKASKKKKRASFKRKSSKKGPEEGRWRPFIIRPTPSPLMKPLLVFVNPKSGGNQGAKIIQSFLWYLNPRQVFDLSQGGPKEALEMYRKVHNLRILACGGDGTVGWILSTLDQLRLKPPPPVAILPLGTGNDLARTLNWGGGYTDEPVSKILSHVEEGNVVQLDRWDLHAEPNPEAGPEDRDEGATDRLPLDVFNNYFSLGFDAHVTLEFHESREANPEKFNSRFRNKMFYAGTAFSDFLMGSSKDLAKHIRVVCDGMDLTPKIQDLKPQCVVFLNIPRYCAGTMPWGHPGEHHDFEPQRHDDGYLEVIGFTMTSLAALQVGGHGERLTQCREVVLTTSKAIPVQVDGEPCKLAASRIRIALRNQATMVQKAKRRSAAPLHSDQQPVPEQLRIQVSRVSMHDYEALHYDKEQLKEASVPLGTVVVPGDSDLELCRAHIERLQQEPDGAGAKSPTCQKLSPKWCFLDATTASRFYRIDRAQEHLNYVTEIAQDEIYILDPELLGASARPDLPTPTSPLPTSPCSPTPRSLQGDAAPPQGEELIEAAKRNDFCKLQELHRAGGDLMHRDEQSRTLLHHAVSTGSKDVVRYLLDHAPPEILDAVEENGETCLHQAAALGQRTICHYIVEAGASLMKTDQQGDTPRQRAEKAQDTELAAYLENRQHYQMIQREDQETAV

Turning to `CC#CCn1cc2c(n1)c(N1C[C@@H](CC)N(C(C)c3cnc4ccccc4n3)C[C@@H]1C)cc(=O)n2C` (single isomer, unassigned) [Compound A394a], the half-maximal inhibitory concentration (IC50) – broadly, the concentration at which inhibition is half-maximal – was 0.454 µM against DGKα and 5400 nM at DGKζ.
Turning to `CC[C@H]1CN(C(C)c2ccc(C)cc2C(F)(F)F)[C@H](CC)CN1c1cc(=O)n(C)c2cn(CC#N)nc12` (single isomer, unassigned) [Compound A115b], the IC50 against DGKα is 105 µM; at DGKζ, 378 nM.
For the molecule `CC[C@@H]1CN(c2c(C#N)c(=O)n(C)c3cn(CC#N)nc23)[C@@H](C)CN1C(C)c1ccc2nccnc2c1` (stereo partly drawn) [Compound A156, 2-(cyanomethyl)-7-((2S,5R)-5-ethyl-2-methyl-4-(1-(quinoxalin-6-yl)ethyl)piperazin-1-yl)-4-methyl-5-oxo-4,5-dihydro-2H-pyrazolo[4,3-b]pyridine-6-carbonitrile], the IC50 against DGKα worked out at 1.75 µM; at DGKζ it was 18 nM.
On to `CC(C1CCCCC1)N1C[C@H](C)N(c2cc(=O)n(C)c3cn(CC#N)nc23)C[C@H]1C` (stereo partly drawn) [Compound A223], for which the results for the half-inhibitory concentration (IC50) on DGKα and at DGKζ were greater than 10 µM and greater than 10000 nM, respectively.
Taken in the same sequence, the figures for `CC[C@H]1CN(C(C)c2ccc3cc(C)ncc3c2)[C@H](CC)CN1c1cc(=O)n(C)c2cn(CC#N)nc12` (stereo partly drawn) [Compound A366] were 0.366 µM and 644 nM.
On the same counts, the results for `Cc1nc2cc(C(C)N3C[C@H](C)N(c4cc(=O)n(C)c5cn(CC#N)nc45)C[C@H]3C)ccc2nc1O` (stereo partly drawn) [Compound A316, 2-(7-((2S,5R)-4-(1-(2-hydroxy-3-methylquinoxalin-6-yl)ethyl)-2,5-dimethylpiperazin-1-yl)-4-methyl-5-oxo-4,5-dihydro-2H-pyrazolo[4,3-b]pyridin-2-yl)acetonitrile] are 67 µM and greater than 10000 nM.
For `CC[C@@H]1CN(c2cc(=O)n(C)c3cn(CC#N)nc23)[C@@H](CC)CN1C(=O)c1cccc(C(F)(F)F)c1` [Compound A206, 2-(7-((2S,5R)-2,5-diethyl-4-(3-(trifluoromethyl)benzoyl)piperazin-1-yl)-4-methyl-5-oxo-4,5-dihydro-2H-pyrazolo[4,3-b]pyridin-2-yl)acetonitrile], the figures for the IC50 on DGKα and on DGKζ were 2.59 µM and 2270 nM, respectively.
On to `Cc1nc2cc(C(C)N3C[C@H](C)N(c4cc(=O)n(C)c5cn(CC#N)nc45)C[C@H]3C)ccc2o1` (stereo partly drawn) [Compound A41], for which the concentration for half-maximal inhibition (IC50) against DGKα was greater than 10 µM; at DGKζ, 1000 nM.
In the case of `CC[C@H]1CN(C(C)c2ccccc2C(F)(F)F)[C@H](CC)CN1c1cc(=O)n(C)c2cn(CC#N)nc12` (single isomer, unassigned) [Compound A197b], the figures for the IC50 on DGKα and on DGKζ were greater than 10 µM and 169 nM, respectively.
Taken in the same sequence, the figures for `CC(c1ccc2cccnc2c1)N1C[C@H](C)N(c2cc(=O)n(C)c3cn(CC#N)nc23)C[C@H]1C` (stereo partly drawn) [Compound A40] were 2.3 µM and 270 nM.
In the case of `CC[C@H]1CN(C(C)c2ccc(F)cc2C(C)OC)[C@H](CC)CN1c1cc(=O)n(C)c2cn(CC#N)nc12` (stereo partly drawn) [Compound A327, 2-(7-((2S,5R)-2,5-diethyl-4-(1-(4-fluoro-2-(1-methoxyethyl)phenyl)ethyl)piperazin-1-yl)-4-methyl-5-oxo-4,5-dihydro-2H-pyrazolo[4,3-b]pyridin-2-yl)acetonitrile], the values for the half-maximal inhibitory concentration (IC50) against DGKα and on DGKζ were greater than 150 µM and 19 nM, respectively.
Take `CC[C@H]1CN(C(C)c2cnc3c(n2)CCCC3)[C@H](CC)CN1c1cc(=O)n(C)c2cn(CC#N)nc12` (single isomer, unassigned) [Compound A357a]: the values for the IC50 at DGKα and at DGKζ were 2.45 µM and 2540 nM, respectively.
Turning to `CC[C@H]1CN(C(C)c2ccc(F)cc2Br)[C@H](CC)CN1c1cc(=O)n(C)c2cn(CC#N)nc12` (stereo partly drawn) [Compound A111, 2-(7-((2S,5R)-4-(1-(2-bromo-4-fluorophenyl)ethyl)-2,5-diethylpiperazin-1-yl)-4-methyl-5-oxo-4,5-dihydro-2H-pyrazolo[4,3-b]pyridin-2-yl)acetonitrile], the half-maximal inhibitory concentration (IC50) is greater than 10 µM on DGKα and 96 nM at DGKζ.
On the same counts, the results for `COC1(c2cc(F)ccc2C(C)N2C[C@H](C)N(c3cc(=O)n(C)c4cn(CC#N)nc34)C[C@H]2C)CC1` (stereo partly drawn) [Compound A329, 2-(7-((2S,5R)-4-(1-(4-fluoro-2-(1-methoxycyclopropyl)phenyl)ethyl)-2,5-dimethylpiperazin-1-yl)-4-methyl-5-oxo-4,5-dihydro-2H-pyrazolo[4,3-b]pyridin-2-yl)acetonitrile] are greater than 150 µM and 91 nM.
On the same counts, the results for `C[C@H]1CN([C@@H](C)c2ccc3c(c2)OC(C)(C)CO3)[C@@H](C)CN1c1cc(=O)n(C)c2cn(CC#N)nc12` [Compound A46a] are greater than 10 µM and greater than 10000 nM.
In the case of `[2H]C([2H])([2H])c1cnc2ccc(C(C)N3C[C@H](C)N(c4cc(=O)n(C)c5cn(CC#N)nc45)C[C@H]3C)cc2n1` (stereo partly drawn) [Compound A313, 2-(7-((2S,5R)-2,5-dimethyl-4-(1-(3-(methyl-d3)quinoxalin-6-yl)ethyl)piperazin-1-yl)-4-methyl-5-oxo-4,5-dihydro-2H-pyrazolo[4,3-b]pyridin-2-yl)acetonitrile], the values for the half-maximal inhibitory concentration (IC50) on DGKα and at DGKζ were 48 µM and 41 nM, respectively.
For `CC[C@@H]1CN(c2cc(=O)n(C)c3cn(CC#N)nc23)[C@@H](CC)CN1C(=O)c1ccc(C2CC2)cc1` [Compound A369], the IC50 was determined as 0.294 µM on DGKα and 1090 nM on DGKζ.
On the same counts, the results for `CC[C@H]1CN(C(C)c2ccc(C(F)(F)F)cc2)[C@H](CC)CN1c1cc(=O)n(C)c2cn(CC#N)nc12` (mixture of isomers) [Compound A103, 2-(7-((2S,5R)-2,5-diethyl-4-(1-(4-(trifluoromethyl)phenyl)ethyl)piperazin-1-yl)-4-methyl-5-oxo-4,5-dihydro-2H-pyrazolo[4,3-b]pyridin-2-yl)acetonitrile] are 0.208 µM and 107 nM.
On the same counts, the results for `CC[C@H]1CN(C(C)c2ccc(C3CC3)cc2OC)[C@H](CC)CN1c1cc(=O)n(C)c2cn(CC#N)nc12` (single isomer, unassigned) [Compound A199b] are greater than 10 µM and 803 nM.
On the same counts, the results for `COCc1cc(F)ccc1C(C)N1C[C@H](C)N(c2cc(=O)n(C)c3cn(CC#N)nc23)C[C@H]1C` (stereo partly drawn) [Compound A29, 2-(7-((2S,5R)-4-(1-(4-fluoro-2-(methoxymethyl)phenyl)ethyl)-2,5-dimethylpiperazin-1-yl)-4-methyl-5-oxo-4,5-dihydro-2H-pyrazolo[4,3-b]pyridin-2-yl)acetonitrile] are 23 µM and 110 nM.
For `CC[C@H]1CN([C@@H](C)c2nc3ncccc3n2CC)[C@H](CC)CN1c1cc(=O)n(C)c2cn(CC#N)nc12` (single isomer, unassigned) [Compound A215b], the half-inhibitory concentration (IC50) is greater than 10 µM against DGKα and 1140 nM on DGKζ.
Take `C[C@@H]1CN(c2cc(=O)n(C)c3cn(CC#N)nc23)[C@@H](C)CN1Cc1ccc2nccnc2c1` [Compound A44]: the half-inhibitory concentration (IC50) on DGKα came out at 8.1 µM; at DGKζ, 610 nM.
On the same counts, the results for `CC(c1ccc2c(c1)C(F)(F)CCO2)N1C[C@H](C)N(c2cc(=O)n(C)c3cn(CC#N)nc23)C[C@H]1C` (stereo partly drawn) [Compound A331, 2-(7-((2S,5R)-4-(1-(4,4-difluorochroman-6-yl)ethyl)-2,5-dimethylpiperazin-1-yl)-4-methyl-5-oxo-4,5-dihydro-2H-pyrazolo[4,3-b]pyridin-2-yl)acetonitrile] are 31.8 µM and 46 nM.
Regarding `CC[C@H]1CN(C(C)c2ccnn2CC(F)F)[C@H](CC)CN1c1cc(=O)n(C)c2c[nH]nc12` (stereo partly drawn) [Compound A228, 7-((2S,5R)-4-(1-(1-(2,2-difluoroethyl)-1H-pyrazol-5-yl)ethyl)-2,5-diethylpiperazin-1-yl)-4-methyl-2,4-dihydro-5H-pyrazolo[4,3-b]pyridin-5-one], the figures for the IC50 against DGKα and at DGKζ were greater than 10 µM and 9200 nM, respectively.
Regarding `CC[C@H]1CN(C(C)c2cncn2CC(F)F)[C@H](CC)CN1c1cc(=O)n(C)c2cn(CC#N)nc12` (stereo partly drawn) [Compound A237], the 50% inhibitory concentration (IC50) at DGKα is greater than 10 µM; at DGKζ, 1350 nM.
Turning to `CC[C@H]1CN(C(C)c2ncc(Cl)n2CC)[C@H](CC)CN1c1cc(=O)n(C)c2cn(CC#N)nc12` (single isomer, unassigned) [Compound A187a], the IC50 at DGKα was determined as 5.74 µM; at DGKζ it was 5920 nM.
For the molecule `CC(c1ccc2ncc(C(C)(F)F)nc2c1)N1C[C@H](C)N(c2cc(=O)n(C)c3cn(CC#N)nc23)C[C@H]1C` (stereo partly drawn) [Compound A312, 2-(7-((2S,5R)-4-(1-(3-(1,1-difluoroethyl)quinoxalin-6-yl)ethyl)-2,5-dimethylpiperazin-1-yl)-4-methyl-5-oxo-4,5-dihydro-2H-pyrazolo[4,3-b]pyridin-2-yl)acetonitrile], the IC50 against DGKα was determined as 66 µM; on DGKζ, 238 nM.
`CC[C@H]1CN(C(C)c2ccc3nc(O)cnc3c2)[C@H](CC)CN1c1cc(=O)n(C)c2cn(CC#N)nc12` (single isomer, unassigned) [Compound A282a]: the figures for the half-inhibitory concentration (IC50) against DGKα and on DGKζ were 0.182 µM and 5350 nM, respectively.
With `CC(c1ccc(F)cc1C(F)F)N1C[C@H](C)N(c2cc(=O)n(C)c3cn(CC#N)nc23)C[C@H]1C` (stereo partly drawn) [Compound A252], the IC50 at DGKα is greater than 10 µM; on DGKζ, 1370 nM.
On the same counts, the results for `C[C@@H]1CN(c2cc(=O)n(C)c3cn(CC#N)nc23)[C@@H](C)CN1[C@@H](C)c1ccc2nccnc2c1` [Compound A2a, 2-(7-((2S,5R)-2,5-dimethyl-4-((S)-1-(quinoxalin-6-yl)ethyl)piperazin-1-yl)-4-methyl-5-oxo-4,5-dihydro-2H-pyrazolo[4,3-b]pyridin-2-yl)acetonitrile] are 4.8 µM and 52 nM.
